From ChEMBL document CHEMBL1649173, “Single-dose escalation and multiple-dose safety, tolerability, and pharmacokinetics of IDX899, a candidate human immunodeficiency virus type 1 nonnucleoside reverse transcriptase inhibitor, in healthy subjects” (Antimicrob Agents Chemother, 2009)

Columns and labels:
[1] = AUC (0 to infinity) in fasted state healthy human at 400 mg, po administered as single dose; type: ADME, organism-based; design: dose 400 mg, time infinity, route oral; details: plasma
[2] = AUC (0 to infinity) in healthy human at 800 mg, po qd after 7 days; type: ADME, organism-based; design: dose 800 mg, route oral, time infinity; details: plasma
[3] = Trough plasma concentration in healthy human at 400 mg, po bid after 7 days; type: ADME, organism-based; details: read-out: Cmin
[4] = Cmax in healthy human at 400 mg, po bid after 1 day; type: ADME, organism-based; design: dose 400 mg, route oral; details: in vivo
[5] = Tmax in fed state healthy human at 400 mg, po administered as single dose; type: ADME, organism-based; details: in vivo
[6] = Plasma concentration in fed state healthy human at 400 mg, po administered as single dose after 24 hrs; type: ADME, organism-based
[7] = Apparent total volume of distribution in fed state female healthy human at 400 mg, po administered as single dose; type: ADME, organism-based; details: in vivo, read-out: Vz/F
[8] = Trough plasma concentration in healthy human at 400 mg, po bid after 1 day; type: ADME, organism-based; details: read-out: Cmin
[9] = Half life in fed state healthy human at 1200 mg, po administered as single dose; type: ADME, organism-based; details: in vivo
[10] = AUC (0 to infinity) in fasted state healthy human at 200 mg, po administered as single dose; type: ADME, organism-based; design: dose 200 mg, time infinity, route oral; details: plasma
[11] = Tmax in fasted state healthy human at 100 mg, po administered as single dose; type: ADME, organism-based; details: in vivo
[12] = Tmax in fed state female healthy human at 400 mg, po administered as single dose; type: ADME, organism-based; details: in vivo
[13] = Half life in fed state healthy human at 200 mg, po administered as single dose; type: ADME, organism-based; details: in vivo
Homo sapiens [14] = assay: Toxicity in healthy human assessed as occurrence of head ache at 50 to 1200 mg, po administered as single dose; type: organism-based; details: in vivo
[15] = AUC (0 to infinity) in fed state healthy human at 800 mg, po administered as single dose; type: ADME, organism-based; design: dose 800 mg, time infinity, route oral; details: plasma
[16] = Apparent total plasma clearance in fasted state healthy human at 400 mg, po administered as single dose; type: ADME, organism-based
[17] = Cmax in fed state healthy human at 800 mg, po administered as single dose; type: ADME, organism-based; design: dose 800 mg, route oral; details: in vivo
[18] = Apparent total plasma clearance in healthy human at 800 mg, po qd after 7 days; type: ADME, organism-based
[19] = Plasma concentration in fed state healthy human at 1200 mg, po administered as single dose after 24 hrs; type: ADME, organism-based
[20] = Apparent total volume of distribution in healthy human at 800 mg, po qd after 1 day; type: ADME, organism-based; details: in vivo, read-out: Vz/F
[21] = Apparent total plasma clearance in healthy human at 400 mg, po bid after 7 days; type: ADME, organism-based
[22] = AUC (0 to infinity) in fasted state healthy human at 100 mg, po administered as single dose; type: ADME, organism-based; design: dose 100 mg, time infinity, route oral; details: plasma
[23] = Apparent total plasma clearance in fasted state healthy human at 100 mg, po administered as single dose; type: ADME, organism-based
Homo sapiens [24] = assay: Toxicity in healthy human assessed as incidence of adverse events at 50 to 1200 mg, po administered as single dose; type: organism-based; details: in vivo
[25] = Tmax in fasted state healthy human at 400 mg, po administered as single dose; type: ADME, organism-based; details: in vivo
[26] = Cmax in fasted state healthy human at 50 mg, po administered as single dose; type: ADME, organism-based; design: dose 50 mg, route oral; details: in vivo
[27] = Half life in fed state female healthy human at 400 mg, po administered as single dose; type: ADME, organism-based; details: in vivo
[28] = Tmax in fed state healthy human at 200 mg, po administered as single dose; type: ADME, organism-based; details: in vivo
[29] = Tmax in healthy human at 800 mg, po qd after 7 days; type: ADME, organism-based; details: in vivo
[30] = Apparent total volume of distribution in fed state healthy human at 1200 mg, po administered as single dose; type: ADME, organism-based; details: in vivo, read-out: Vz/F
[31] = Tmax in fed state healthy human at 1200 mg, po administered as single dose; type: ADME, organism-based; details: in vivo
[32] = Cmax in healthy human at 400 mg, po bid after 7 days; type: ADME, organism-based; design: dose 400 mg, route oral; details: in vivo
[33] = Half life in healthy human at 800 mg, po qd after 7 days; type: ADME, organism-based; details: in vivo
[34] = Plasma concentration in fasted state healthy human at 50 mg, po administered as single dose after 24 hrs; type: ADME, organism-based
Homo sapiens [35] = assay: Toxicity in healthy human assessed as incidence of dizziness at 400 mg, po bid and 800 mg, po qd for 7 days; type: organism-based; details: in vivo, 168 h
[36] = Tmax in healthy human at 400 mg, po bid after 1 day; type: ADME, organism-based; details: in vivo
[37] = Apparent total plasma clearance in fed state healthy human at 800 mg, po administered as single dose; type: ADME, organism-based
[38] = Half life in fasted state healthy human at 200 mg, po administered as single dose; type: ADME, organism-based; details: in vivo
[39] = Apparent total plasma clearance in fasted state healthy human at 50 mg, po administered as single dose; type: ADME, organism-based
[40] = Tmax in fasted state healthy human at 50 mg, po administered as single dose; type: ADME, organism-based; details: in vivo
[41] = Half life in fasted state healthy human at 400 mg, po administered as single dose; type: ADME, organism-based; details: in vivo
[42] = Cmax in healthy human at 800 mg, po qd after 1 day; type: ADME, organism-based; design: dose 800 mg, route oral; details: in vivo
Homo sapiens [43] = assay: Toxicity in healthy human assessed as occurrence of dizziness at 50 to 1200 mg, po administered as single dose; type: organism-based; details: in vivo
[44] = Cmax in fed state healthy human at 400 mg, po administered as single dose; type: ADME, organism-based; design: dose 400 mg, route oral; details: in vivo
[45] = Apparent total volume of distribution in fasted state healthy human at 100 mg, po administered as single dose; type: ADME, organism-based; details: in vivo, read-out: Vz/F
[46] = Apparent total plasma clearance in healthy human at 800 mg, po qd after 1 day; type: ADME, organism-based
[47] = Apparent total plasma clearance in fed state healthy human at 1200 mg, po administered as single dose 0; type: ADME, organism-based
[48] = Half life in fed state healthy human at 400 mg, po administered as single dose; type: ADME, organism-based; details: in vivo
Homo sapiens [49] = assay: Toxicity in healthy human assessed as incidence of nausea at 400 mg, po bid and 800 mg, po qd for 7 days; type: organism-based; details: in vivo, 168 h
[50] = Apparent total plasma clearance in fed state healthy human at 400 mg, po administered as single dose; type: ADME, organism-based

Question: Which results are given for `COP(=O)(c1cc(C)cc(/C=C/C#N)c1)c1c(C(N)=O)[nH]c2ccc(Cl)cc12` (stereo not given)?
Answer: AUC(0-inf) [1]: 14700 ng·h/mL; AUC(0-inf) [2]: 54600 ng·h/mL; concentration at 168 h [3]: 2100 ng/mL; Cmax [4]: 2000 ng/mL; Tmax [5]: 7 h; concentration at 24 h [6]: 360 ng/mL; Vd/F [7]: 329 L; concentration at 24 h [8]: 800 ng/mL; half-life [9]: 7.9 h; AUC(0-inf) [10]: 7100 ng·h/mL; Tmax [11]: 1.5 h; Tmax [12]: 5 h; half-life [13]: 9.5 h; Activity (Homo sapiens [14]): 8.2%; AUC(0-inf) [15]: 47200 ng·h/mL; CL/F [16]: 480 mL/min; Cmax [17]: 3000 ng/mL; CL/F [18]: 292 mL/min; concentration at 24 h [19]: 2020 ng/mL; Vd/F [20]: 151 L; CL/F [21]: 268 mL/min; AUC(0-inf) [22]: 15800 ng·h/mL; CL/F [23]: 118 mL/min; Activity (Homo sapiens [24]): 22.4%; Tmax [25]: 1.8 h; Cmax [26]: 1600 ng/mL; half-life [27]: 13.9 h; Tmax [28]: 7 h; Tmax [29]: 4 h; Vd/F [30]: 134 L; Tmax [31]: 10.1 h; Cmax [32]: 4000 ng/mL; half-life [33]: 13.6 h; concentration at 24 h [34]: 50 ng/mL; Activity (Homo sapiens [35]): 0%; Tmax [36]: 4 h; CL/F [37]: 297 mL/min; half-life [38]: 11.9 h; CL/F [39]: 103 mL/min; Tmax [40]: 1.5 h; half-life [41]: 14.6 h; Cmax [42]: 4900 ng/mL; Activity (Homo sapiens [43]): 2%; Cmax [44]: 2400 ng/mL; Vd/F [45]: 66.3 L; CL/F [46]: 252 mL/min; CL/F [47]: 197 mL/min; half-life [48]: 9.8 h; Activity (Homo sapiens [49]): 0%; CL/F [50]: 215 mL/min
